The test system of the experiment is organoids from classical versus basal-like tumors. Briefly: IFNγ treatment of organoids from classical and basal-like tumors. The class given is cell-based, human. The source says:
FIG. 37—Micrographs and graph showing results of IFNγ treatment in organoids from classical and basal-like tumors.
Applicants next asked whether organoids from classical versus basal-like tumors respond differently to addition of IFNγ.

For “IFNγ: cytokine (type II interferon) added to organoid cultures”, where the note is “classical expression state, patient-derived PDAC organoids (FIG. 37)”, the “effect on expression state in organoids” value is reported as “select against the classical expression state”. Where the note is “patient-derived PDAC organoids (FIG. 37)”, the “return to a basal state” value is “may not be sufficient to drive complete return to a basal state”. The “growth inhibition by IFNγ” value (patient-derived PDAC organoids, classical versus basal-like tumors, preliminary results (FIG. 37)) was “more pronounced in organoids derived from classical tumors”.

The values are drawn from patent US20220396777A1, “PATIENT-MATCHED ORGANOID SYSTEMS FOR STUDYING CANCER” (Dana-Farber Cancer Institute, Inc., priority 2019, published 2022).
